In general, IC50 refers to the concentration that gives 50% inhibition. Read a low IC50 as inhibition by little substance.

A value given as a limit tells only on which side of the number the result lay.

Holding throughout (assay type): cell-based
The target in one experiment is T1, human Nav1.5 (hNav1.5) (Homo sapiens, UniProt Q14524).
T1 construct: expressed in transfected cells
Put plainly: hNav1.5 slow inactivation block, manual patchclamp. The following applies: HEK 293F cells stably expressing hNav1.5. The source says:
The generation of HEK 293F cell lines stably expressing human Nav1.7 (h Nav1.7), human Nav1.5 (hNav1.5) and rat Nav1.2 (r Nav1.2) was achieved by subcloning SCN9A, SCN5A, and SCN2A genes into inducible expression vectors followed by transfection into target cells using standard techniques. In the case of h Nav1.7, an expression vector encoding the human Navβ1 auxiliary subunit gene, SCN1B, was co-transfected with the expression vector bearing the SCN9A gene. Clones were selected using appropriate selection agents (0.3 mg/mL Zeocin and 0.8 mg/mL Geneticin) and maintained in Dulbecco's Modified Eagle medium, 10% fetal bovine serum, 1% non-essential amino acids to ˜80% confluence at 37° C. in a humidified incubator with 95% atmosphere and 5% CO2. […]
(§1) On the day of each experiment, cells that were grown to 80% confluence in a T75 flask were harvested for use on PatchXpress (Molecular Devices, CA, USA). Following a recovery period at 37° C. in a humidified incubator with 95% atmosphere and 5% CO2 in Dulbecco's Modified Eagle Medium, the media was replaced with an external recording solution containing (in mM): 90 TEACl, 50 NaCl, 1.8 CaCl2, 1 MgCl2, 10 HEPES, 10 glucose, adjusted to pH 7.4 with TEAOH and 300 mOsm with sucrose. The internal recording solution contained (in mM): 129 CsF, 2 MgCl2, 11 EGTA, 10 HEPES, 6 NaCl, 3 Na2ATP adjusted to pH 7.2 with CsOH and 280 mOsm with sucrose. The automated liquid handling facility of PatchXpress dispensed cells and added compound. Modulation of Nav1.7 channels by compounds was assessed by promoting the channels into the inactivated state using a conditioning voltage pulse of variable amplitude, followed by a brief hyperpolarizing pulse with a subsequent depolarized voltage step to measure the current amplitude in the presence and absence of compound.
(§2) In some cases, the potency of compounds was measured using either the Patchliner automated patch clamp platform (Nanion) or manual patch clamp techniques. Both approaches allowed the compounds to be characterized based upon the ability of a compound to modulate use- and/or state-dependence across human Nav1.7 (hNav1.7), human Nav1.5 (hNav1.5) and rat Nav1.2 (rNav1.2). The potency data is tabulated in Table 2 and is represented by six data fields. Three of the six fields represent potency data measured with the Patchliner automated platform under varying use- and state-dependent electrophysiology protocols similar to the PatchXpress protocols detailed above. For example, the second data column describes the potency of compounds in their ability to block 50% of Nav1.7 channels when the channel is repetitively activated by depolarizing voltage potentials to induce slow inactivation in approximately 50% of channels (Table 2: h Nav1.7: IC50 Slow Inactivation Block, Automated Patchclamp). The next three data fields describe the data generated from manual patchclamp electrophysiology measurements using similar methods to those employed for automated patchclamp studies.
(In general: The patch-clamp technique gives a direct electrical read-out from membranes.)

For experiment [1], the target named is T2, human Nav1.7 (hNav1.7) (Homo sapiens, UniProt Q15858).
T2 construct: expressed in transfected cells
In words: hNav1.7 slow inactivation block, manual patchclamp. The settings on record: HEK 293F cells stably expressing hNav1.7, slow inactivation induced in approximately 50% of channels.
Description: (§3) The generation of HEK 293F cell lines stably expressing human Nav1.7 (h Nav1.7), human Nav1.5 (hNav1.5) and rat Nav1.2 (r Nav1.2) was achieved by subcloning SCN9A, SCN5A, and SCN2A genes into inducible expression vectors followed by transfection into target cells using standard techniques. In the case of h Nav1.7, an expression vector encoding the human Navβ1 auxiliary subunit gene, SCN1B, was co-transfected with the expression vector bearing the SCN9A gene. Clones were selected using appropriate selection agents (0.3 mg/mL Zeocin and 0.8 mg/mL Geneticin) and maintained in Dulbecco's Modified Eagle medium, 10% fetal bovine serum, 1% non-essential amino acids to ˜80% confluence at 37° C. in a humidified incubator with 95% atmosphere and 5% CO2.
as §1, §2

Experiment [2] concerns the target T2, human Nav1.7 (hNav1.7). Put plainly: hNav1.7 slow inactivation block, automated patchclamp. The settings on record: HEK 293F cells stably expressing hNav1.7, slow inactivation induced in approximately 50% of channels.
Description: as §3, §1, §2

Experiment [3] deals with T3, rat Nav1.2 (rNav1.2) (Rattus norvegicus, UniProt P04775).
T3 construct: expressed in transfected cells
Put plainly: rNav1.2 slow inactivation block, manual patchclamp. The settings on record: HEK 293F cells stably expressing rNav1.2.
Description: as §3, §1, §2

Experiment [4] addresses T3, rat Nav1.2 (rNav1.2). In words: rNav1.2 slow inactivation block, automated patchclamp. The settings on record: HEK 293F cells stably expressing rNav1.2.
Description: as §3, §1, §2

T3 sequence (P04775 whole entry): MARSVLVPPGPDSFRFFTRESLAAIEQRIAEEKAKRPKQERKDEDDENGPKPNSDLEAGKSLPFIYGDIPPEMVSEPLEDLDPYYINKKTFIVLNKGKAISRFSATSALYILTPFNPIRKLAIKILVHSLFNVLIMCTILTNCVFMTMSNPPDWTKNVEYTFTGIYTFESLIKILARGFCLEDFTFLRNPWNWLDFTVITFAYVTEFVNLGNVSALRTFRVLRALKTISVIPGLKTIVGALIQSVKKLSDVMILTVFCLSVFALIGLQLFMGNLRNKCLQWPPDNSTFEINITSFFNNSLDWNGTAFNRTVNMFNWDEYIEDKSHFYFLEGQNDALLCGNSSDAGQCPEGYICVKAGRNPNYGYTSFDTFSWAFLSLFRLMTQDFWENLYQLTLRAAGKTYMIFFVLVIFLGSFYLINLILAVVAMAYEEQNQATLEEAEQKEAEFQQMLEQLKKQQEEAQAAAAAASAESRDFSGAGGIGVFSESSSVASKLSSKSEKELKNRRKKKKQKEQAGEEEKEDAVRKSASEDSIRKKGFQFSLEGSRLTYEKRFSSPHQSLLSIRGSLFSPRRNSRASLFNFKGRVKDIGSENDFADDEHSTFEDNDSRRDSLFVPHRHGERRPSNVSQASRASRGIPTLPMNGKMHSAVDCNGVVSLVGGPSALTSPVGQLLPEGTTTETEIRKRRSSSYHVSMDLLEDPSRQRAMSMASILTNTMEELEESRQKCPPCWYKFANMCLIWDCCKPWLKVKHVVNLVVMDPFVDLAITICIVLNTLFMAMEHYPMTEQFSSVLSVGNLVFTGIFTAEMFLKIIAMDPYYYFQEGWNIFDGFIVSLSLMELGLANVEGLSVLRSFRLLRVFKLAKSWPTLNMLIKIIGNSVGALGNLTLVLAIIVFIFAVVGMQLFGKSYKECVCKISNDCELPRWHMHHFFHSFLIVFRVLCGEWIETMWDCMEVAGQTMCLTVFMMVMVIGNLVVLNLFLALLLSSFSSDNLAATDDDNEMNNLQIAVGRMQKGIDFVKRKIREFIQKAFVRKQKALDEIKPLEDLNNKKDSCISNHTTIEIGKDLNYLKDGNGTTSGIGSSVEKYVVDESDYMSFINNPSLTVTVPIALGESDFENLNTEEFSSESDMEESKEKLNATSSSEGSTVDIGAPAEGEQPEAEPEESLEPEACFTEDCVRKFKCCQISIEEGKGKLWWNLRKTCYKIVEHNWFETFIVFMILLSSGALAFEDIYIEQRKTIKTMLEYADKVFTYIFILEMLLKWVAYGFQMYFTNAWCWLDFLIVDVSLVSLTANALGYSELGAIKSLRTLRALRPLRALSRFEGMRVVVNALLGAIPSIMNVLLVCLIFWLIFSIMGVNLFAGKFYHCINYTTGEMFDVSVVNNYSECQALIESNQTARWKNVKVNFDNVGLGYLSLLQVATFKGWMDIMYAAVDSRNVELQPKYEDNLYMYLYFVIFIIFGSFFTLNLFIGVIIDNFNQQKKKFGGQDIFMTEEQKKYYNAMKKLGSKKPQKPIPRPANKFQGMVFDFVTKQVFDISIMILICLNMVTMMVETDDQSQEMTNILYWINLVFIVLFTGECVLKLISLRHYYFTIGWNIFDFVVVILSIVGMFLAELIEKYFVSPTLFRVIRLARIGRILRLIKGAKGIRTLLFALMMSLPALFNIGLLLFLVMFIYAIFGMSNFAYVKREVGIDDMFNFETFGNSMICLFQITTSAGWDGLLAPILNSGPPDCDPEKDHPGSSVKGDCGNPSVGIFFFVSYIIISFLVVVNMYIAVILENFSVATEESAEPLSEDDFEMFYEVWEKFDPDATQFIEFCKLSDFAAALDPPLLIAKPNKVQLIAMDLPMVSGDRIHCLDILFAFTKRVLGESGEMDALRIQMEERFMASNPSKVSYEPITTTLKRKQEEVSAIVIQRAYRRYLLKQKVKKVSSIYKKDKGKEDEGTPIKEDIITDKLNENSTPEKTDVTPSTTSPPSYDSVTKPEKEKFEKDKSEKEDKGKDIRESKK
T2 sequence (Q15858 whole entry): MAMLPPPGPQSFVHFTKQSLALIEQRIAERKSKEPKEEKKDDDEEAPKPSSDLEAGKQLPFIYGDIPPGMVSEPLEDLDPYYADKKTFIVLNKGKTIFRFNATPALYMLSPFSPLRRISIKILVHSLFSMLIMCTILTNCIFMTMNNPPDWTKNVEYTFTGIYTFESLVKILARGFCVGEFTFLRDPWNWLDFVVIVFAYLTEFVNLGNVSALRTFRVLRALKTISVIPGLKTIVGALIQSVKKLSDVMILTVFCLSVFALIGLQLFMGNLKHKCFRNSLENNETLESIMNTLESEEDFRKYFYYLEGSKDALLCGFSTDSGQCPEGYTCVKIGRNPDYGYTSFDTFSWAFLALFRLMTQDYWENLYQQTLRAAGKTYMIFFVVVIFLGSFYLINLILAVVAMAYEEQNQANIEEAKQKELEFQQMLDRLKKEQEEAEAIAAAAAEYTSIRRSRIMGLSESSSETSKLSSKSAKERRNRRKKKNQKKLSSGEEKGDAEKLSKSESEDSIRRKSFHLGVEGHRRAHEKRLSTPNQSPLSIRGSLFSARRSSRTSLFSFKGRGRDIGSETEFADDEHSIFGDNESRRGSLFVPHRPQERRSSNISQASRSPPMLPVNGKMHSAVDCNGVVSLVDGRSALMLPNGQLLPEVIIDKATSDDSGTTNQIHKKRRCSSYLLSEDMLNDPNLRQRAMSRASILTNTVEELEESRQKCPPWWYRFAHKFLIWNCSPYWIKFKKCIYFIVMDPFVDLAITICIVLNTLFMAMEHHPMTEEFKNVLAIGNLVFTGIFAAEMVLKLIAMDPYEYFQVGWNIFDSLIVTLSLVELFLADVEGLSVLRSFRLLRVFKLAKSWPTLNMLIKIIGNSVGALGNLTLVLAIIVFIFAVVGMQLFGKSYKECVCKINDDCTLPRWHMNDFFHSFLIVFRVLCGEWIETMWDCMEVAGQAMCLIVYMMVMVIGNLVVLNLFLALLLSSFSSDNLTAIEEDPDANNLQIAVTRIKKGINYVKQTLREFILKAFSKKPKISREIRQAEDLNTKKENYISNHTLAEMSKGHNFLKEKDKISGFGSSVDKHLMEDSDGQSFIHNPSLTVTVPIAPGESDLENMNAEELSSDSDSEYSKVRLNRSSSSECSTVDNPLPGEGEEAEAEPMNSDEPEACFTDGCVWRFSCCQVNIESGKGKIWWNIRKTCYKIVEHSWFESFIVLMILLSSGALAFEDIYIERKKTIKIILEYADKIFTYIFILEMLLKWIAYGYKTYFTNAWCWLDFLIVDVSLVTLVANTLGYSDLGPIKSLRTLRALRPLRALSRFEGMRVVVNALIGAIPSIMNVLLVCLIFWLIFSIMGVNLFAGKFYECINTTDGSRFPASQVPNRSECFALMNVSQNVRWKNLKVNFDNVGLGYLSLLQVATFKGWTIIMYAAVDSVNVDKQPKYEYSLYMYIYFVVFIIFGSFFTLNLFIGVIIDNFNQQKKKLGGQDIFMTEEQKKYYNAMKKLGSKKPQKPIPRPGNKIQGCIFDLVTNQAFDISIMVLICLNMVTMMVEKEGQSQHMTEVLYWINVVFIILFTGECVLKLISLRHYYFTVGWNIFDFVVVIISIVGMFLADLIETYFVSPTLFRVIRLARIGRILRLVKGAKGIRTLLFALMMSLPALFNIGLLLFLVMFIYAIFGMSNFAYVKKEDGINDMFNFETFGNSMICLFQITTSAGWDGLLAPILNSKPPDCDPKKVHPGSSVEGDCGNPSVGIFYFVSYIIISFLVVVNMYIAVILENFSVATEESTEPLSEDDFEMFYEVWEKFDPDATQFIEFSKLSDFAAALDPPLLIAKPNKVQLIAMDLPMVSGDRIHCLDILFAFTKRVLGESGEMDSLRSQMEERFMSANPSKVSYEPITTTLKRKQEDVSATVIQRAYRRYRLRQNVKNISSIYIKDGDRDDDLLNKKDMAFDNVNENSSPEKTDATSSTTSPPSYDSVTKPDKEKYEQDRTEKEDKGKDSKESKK
T2 sequence (Q07699 19-218 partner): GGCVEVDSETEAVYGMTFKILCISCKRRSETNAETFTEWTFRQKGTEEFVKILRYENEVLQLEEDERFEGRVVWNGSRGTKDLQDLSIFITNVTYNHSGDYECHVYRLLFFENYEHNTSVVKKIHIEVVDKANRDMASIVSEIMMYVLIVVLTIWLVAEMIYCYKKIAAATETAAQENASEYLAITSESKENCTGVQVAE

Take `O=C(NCc1cc(F)c(Oc2cc(Br)cc(C(F)(F)F)c2)cc1F)c1ncns1` [Compound 1, N-(4-(3-bromo-5-(trifluoromethyl)phenoxy)-2,5-difluorobenzyl)-1,2,4-thiadiazole-5-carboxamide]: the IC50 against human Nav1.5 (hNav1.5) was under 1000 nM; at human Nav1.7 (hNav1.7) [1] it was 294 nM.

For `CN(c1ncns1)S(=O)(=O)c1cc(F)c(Oc2cc(Br)cc(C(F)(F)F)c2)cc1F` [Compound 2, 4-(3-bromo-5-(trifluoromethyl)phenoxy)-2,5-difluoro-N-methyl-N-(1,2,4-thiadiazol-5-yl)benzenesulfonamide], the IC50 at human Nav1.5 (hNav1.5) is over 3200 nM; against human Nav1.7 (hNav1.7) [1] it was 484 nM.

On to `O=C(NCc1cc(F)c(Oc2cc(C(F)(F)F)cc(C(F)(F)F)c2)cc1F)c1nncs1` [Compound 19, N-({4-[3,5-bis(trifluoromethyl)phenoxy]-2,5-difluorophenyl}methyl)-1,3,4-thiadiazole-2-carboxamide], for which the IC50 is about 10200 nM against human Nav1.7 (hNav1.7) [2], about 1250 nM at rat Nav1.2 (rNav1.2) [3], 5660 nM at rat Nav1.2 (rNav1.2) [4] and 1380 nM at human Nav1.7 (hNav1.7) [1].

As to `CS(=O)(=O)NCc1cc(F)c(Oc2cc(C(F)(F)F)cc(C(F)(F)F)c2)cc1F` [Compound 20, N-({4-[3,5-bis(trifluoromethyl)phenoxy]-2,5-difluorophenyl}methyl)methane-sulfonamide], the IC50 against human Nav1.7 (hNav1.7) [2] is 5780 nM; against rat Nav1.2 (rNav1.2) [3] it was about 1320 nM; against rat Nav1.2 (rNav1.2) [4], 4260 nM; at human Nav1.7 (hNav1.7) [1], about 1260 nM.

Consider `O=C(Cc1cccc(-c2cc(C(F)(F)F)cc(C(F)(F)F)c2)c1)Nc1ncns1` [Compound 21, 2-{3-[3,5-bis(trifluoromethyl)phenyl]phenyl}-N-(1,2,4-thiadiazol-5-yl)acetamide], for which the IC50 was about 389 nM against rat Nav1.2 (rNav1.2) [3], 550 nM against human Nav1.5 (hNav1.5) and about 383 nM against human Nav1.7 (hNav1.7) [1].

Consider `O=C(O)c1cc(Oc2cc(F)c(S(=O)(=O)Nc3ncns3)cc2F)cc(C(F)(F)F)c1` [Compound 23, 3-{2,5-difluoro-4-[(1,2,4-thiadiazol-5-yl)sulfamoyl]phenoxy}-5-(trifluoromethyl)benzoic], for which the IC50 against human Nav1.7 (hNav1.7) [2] is over 32000 nM; against rat Nav1.2 (rNav1.2) [3], over 10000 nM; on rat Nav1.2 (rNav1.2) [4], over 32000 nM; at human Nav1.7 (hNav1.7) [1] it was over 10000 nM.

`NC(=O)c1cc(Oc2cc(F)c(S(=O)(=O)Nc3ncns3)cc2F)cc(C(F)(F)F)c1` [Compound 24, 3-{2,5-difluoro-4-[(1,2,4-thiadiazol-5-yl)sulfamoyl]phenoxy}-5-(trifluoromethyl)benzamide]: the IC50 on human Nav1.7 (hNav1.7) [2] is 23600 nM; on rat Nav1.2 (rNav1.2) [3] it was over 10000 nM; against rat Nav1.2 (rNav1.2) [4], over 32000 nM; against human Nav1.7 (hNav1.7) [1], 3890 nM.

As to `CCOC(=O)c1cc(Oc2cc(F)c(S(=O)(=O)Nc3ncns3)cc2F)cc(C(F)(F)F)c1` [Compound 26, ethyl 3-{2,5-difluoro-4-[(1,2,4-thiadiazol-5-yl)sulfamoyl]phenoxy}-5-(trifluoromethyl)benzoate], the IC50 on human Nav1.7 (hNav1.7) [2] was about 37200 nM; against rat Nav1.2 (rNav1.2) [3] it was over 10000 nM; against rat Nav1.2 (rNav1.2) [4], over 32000 nM; at human Nav1.7 (hNav1.7) [1] it was 2130 nM.

Regarding `N#Cc1cc(Oc2cc(F)c(S(=O)(=O)Nc3ncns3)cc2F)cc(C(F)(F)F)c1` [Compound 27, 4-[3-cyano-5-(trifluoromethyl)phenoxy]-2,5-difluoro-N-(1,2,4-thiadiazol-5-yl)benzene-1-sulfonamide], the IC50 on human Nav1.7 (hNav1.7) [2] was 18000 nM; at rat Nav1.2 (rNav1.2) [3] it was about 32000 nM; on rat Nav1.2 (rNav1.2) [4], about 32000 nM; at human Nav1.7 (hNav1.7) [1] it was 2170 nM.

Take `O=S(=O)(Nc1ncns1)c1cc(F)c(Oc2cc(F)cc(F)c2)cc1F` [Compound 28, 4-(3,5-difluorophenoxy)-2,5-difluoro-N-(1,2,4-thiadiazol-5-yl)benzene-1-sulfonamide]: the half-inhibitory concentration (IC50) is about 37900 nM at human Nav1.7 (hNav1.7) [2], over 10000 nM at rat Nav1.2 (rNav1.2) [3], over 32000 nM against rat Nav1.2 (rNav1.2) [4] and about 3960 nM against human Nav1.7 (hNav1.7) [1].

For the compound `O=S(=O)(Nc1cccnn1)c1cc(F)c(Oc2cc(C(F)(F)F)cc(C(F)(F)F)c2)cc1F` [Compound 30, 4-[3,5-bis(trifluoromethyl)phenoxy]-2,5-difluoro-N-(pyridazin-3-yl)benzene-1-sulfonamide], the IC50 is about 36000 nM against human Nav1.7 (hNav1.7) [2], 11400 nM against rat Nav1.2 (rNav1.2) [3], about 25200 nM against rat Nav1.2 (rNav1.2) [4] and 4840 nM against human Nav1.7 (hNav1.7) [1].

In the case of `O=S(=O)(Nc1ncns1)c1cc(F)c(Oc2cc(F)cc(C(F)(F)F)c2)cc1F` [Compound 32, 2,5-difluoro-4-(3-fluoro-5-(trifluoromethyl)phenoxy)-N-(1,2,4-thiadiazol-5-yl)benzenesulfonamide], the IC50 at human Nav1.7 (hNav1.7) [2] is about 21100 nM; at rat Nav1.2 (rNav1.2) [3], over 10000 nM; against rat Nav1.2 (rNav1.2) [4] it was over 32000 nM; against human Nav1.7 (hNav1.7) [1], 942 nM.

For `CN(C)C(=O)c1cc(Oc2cc(F)c(S(=O)(=O)Nc3ncns3)cc2F)cc(C(F)(F)F)c1` [Compound 38, 3-{2,5-difluoro-4-[(1,2,4-thiadiazol-5-yl)sulfamoyl]phenoxy}-N,N-dimethyl-5-(trifluoromethyl)benzamide], the half-inhibitory concentration (IC50) at human Nav1.7 (hNav1.7) [2] was about 17100 nM; against human Nav1.5 (hNav1.5) it was over 32000 nM; on human Nav1.7 (hNav1.7) [1], 1600 nM.

As for `NC1(C(=O)NCc2cc(-c3cc(C(F)(F)F)cc(C(F)(F)F)c3)cc(C(F)(F)F)c2)CCCC1` [Compound 53, 1-amino-N-((3′,5,5′-tris(trifluoromethyl)-[1,1′-biphenyl]-3-yl)methyl)cyclopentane-1-carboxamide], the IC50 amounted to 1880 nM against human Nav1.7 (hNav1.7) [2], 120 nM on rat Nav1.2 (rNav1.2) [3], 1090 nM at rat Nav1.2 (rNav1.2) [4] and 225 nM against human Nav1.7 (hNav1.7) [1].

With `O=C(NCc1cc(-c2cc(C(F)(F)F)cc(C(F)(F)F)c2)cc(C(F)(F)F)c1)[C@H]1CCCN1` [Compound 55, (R)-N-((3′,5,5′-tris(trifluoromethyl)-[1,1′-biphenyl]-3-yl)methyl)pyrrolidine-2-carboxamide], the IC50 against human Nav1.7 (hNav1.7) [2] is 3610 nM; against rat Nav1.2 (rNav1.2) [3] it was 156 nM; on rat Nav1.2 (rNav1.2) [4], 2580 nM; against human Nav1.7 (hNav1.7) [1], 162 nM.

Turning to `CN1CCC[C@H]1C(=O)NCc1cccc(-c2cc(C(F)(F)F)cc(C(F)(F)F)c2)c1` [Compound 57, (2S)-N-({3-[3,5-bis(trifluoromethyl)phenyl]phenyl}methyl)-1-methylpyrrolidine-2-carboxamide], the IC50 amounted to 5620 nM against human Nav1.7 (hNav1.7) [2], 176 nM against rat Nav1.2 (rNav1.2) [3], 12300 nM against rat Nav1.2 (rNav1.2) [4] and 160 nM against human Nav1.7 (hNav1.7) [1].

Turning to `CN(Cc1cccc(-c2cc(C(F)(F)F)cc(C(F)(F)F)c2)c1)C(=O)[C@@H]1CCCN1` [Compound 58, (2S)-N-({3-[3,5-bis(trifluoromethyl)phenyl]phenyl}methyl)-N-methylpyrrolidine-2-carboxamide], the half-maximal inhibitory concentration (IC50) at human Nav1.7 (hNav1.7) [2] turned out to be 2470 nM; against rat Nav1.2 (rNav1.2) [3], 733 nM; on rat Nav1.2 (rNav1.2) [4], 2750 nM; against human Nav1.7 (hNav1.7) [1], 777 nM.

Consider `O=C(NCc1cccc(-c2cc(C(F)(F)F)cc(C(F)(F)F)c2)c1)[C@@H]1CCCN1S(=O)(=O)Nc1ccccc1` [Compound 59, (2S)-N-({3-[3,5-bis(trifluoromethyl)phenyl]phenyl}methyl)-1-(phenylsulfamoyl)pyrrolidine-2-carboxamide], for which the IC50 against human Nav1.7 (hNav1.7) [2] amounted to 8690 nM; on rat Nav1.2 (rNav1.2) [3] it was 166 nM; on rat Nav1.2 (rNav1.2) [4], 8730 nM; on human Nav1.7 (hNav1.7) [1] it was 153 nM.

(Values after patent publication US11236078B2, “Heterocyclic inhibitors of the sodium channel” (priority 2014, dated 2022).)
